Laboratory results published in patent publication US9326972B2, “Use of phenylmethimazoles, methimazole derivatives, and tautomeric cyclic thiones for the treatment of autoimmune/inflammatory diseases associated with toll-like receptor overexpression” (Ohio University, priority 2004, dated 2016).
Values joined by “and” are separate entries in the source; they are usually repeats but may differ in a detail not shown here. Identical values can stand only once.

What was measured:
RAW 264.7 cells = assay: LPS-induced cytokine mRNA in RAW 264.7 macrophages (real-time PCR, Northern); conditions: RAW 264.7, LPS 1 μg/mL
C57BL/6J mice = assay: LPS-induced endotoxic shock in C57BL/6J mice: survival and signs of shock; format: in vivo, mouse; conditions: for Survival % of Control: Toxic Shock model, 10 animals, 1.5 days
ICAM-1 and VCAM-1 = assay: Histology and ICAM-1/VCAM-1 immunohistochemistry in organs of LPS-treated mice; format: in vivo, mouse
Method: Histology: Tissue from liver, lung, kidney and heart from normal, LPS and LPS plus C-10 treated mice (experiment in Table 5), were fixed in 4%-PBS-formalin overnight. They then were dehydrated serially in alcohols 50%-70%-90%-100%, clarified in chloroform, and embedded in paraffin. Five (5) sections were obtained and mounted on Vectabond™ (Vector Laboratories, Inc. Burlingame, Calif.) pretreated slides. The sections were incubated twice (10 minutes each) in xylol and re-hydrated by serial alcohol treatments, 100%-90-70-50, followed by distilled water. Tissues were stained with Hematoxylin-Eosin using standard protocols, mounted, and observed by optical microscopy in a double blind manner.
Immunohistochemistry (IHC): C10 (pMMI) effects on the over-expression of adhesion molecules induced by LPS were studied in different organs. […] At 18 h after LPS injection, mice were sacrificed and the heart, lung, liver spleen and kidney were removed and fixed in 4% formalin in PBS. The tissue was then dehydrated in serial alcohols (50% v/v, twice; 70% v/v, twice; 80% v/v, twice; 95% v/v, twice; and 100% v/v, twice), cleared in pure chloroform, embedded in paraffin and sectioned ([…] thickness) and mounted on Vectabond™ (Vector Laboratories, Inc. Burlingame, Calif.) pre-treated slides. […]

NF-κB p65/p50 complex = assay: EMSA of NF-κB p65/p50 complex formation in FRTL-5 thyrocytes; format: cell-based, rat; conditions: FRTL-5, EMSA, 6 hours
[1] = 1 hour, real-time PCR vs DMSO control
[2] = 3 hours, real-time PCR vs DMSO control
[3] = LPS 20 mg/kg i/p, drug i/p 30 min before LPS, 8 mice per group

Cn1c(-c2ccccc2)cnc1S [Compound C10, 5-Phenylmethimazole]
reduction in LPS-increased TNF-α (RAW 264.7 cells; 1 or 6 hours, real-time PCR): no reduction
decrease in LPS-increased IFN-β gene expression (RAW 264.7 cells; [1]): 8 fold
decrease in LPS-induced IL-1β (RAW 264.7 cells; [1]): 11 fold
decrease in LPS-increased IL-6 (RAW 264.7 cells; [2]): 16 fold and > 16 fold
reduction in LPS-increased TNF-α (RAW 264.7 cells; [2]): 4 fold
reduction in LPS-induced IL-12 p40 (RAW 264.7 cells; 6 hours, real-time PCR vs DMSO control): 16 fold
survival / protection from death after LPS injection (C57BL/6J mice; C10 1 mg/kg i/p 30 minutes before LPS 20 mg/kg, 36 hours): 100%
survival (cases) (C57BL/6J mice; C10 0.1 to 1 mg/kg administered 30 min to 12 hours after lethal LPS injection): 100%
duration of survival observed (C57BL/6J mice; C10-treated LPS mice, as long as observed): ≥ 4 weeks
survival (C57BL/6J mice; C10 daily doses of 0.1 or 1 mg/kg, 12 hours after challenge with LPS): 100%
Number of surviving mice, 6 hrs (C57BL/6J mice; [3]): 8
Number of surviving mice, 12 hrs (C57BL/6J mice; [3]): 8
Signs of shock at 12 hours, % of Animals (C57BL/6J mice; LPS-challenged mice): 100 % of Animals
prevention of death vs freshly made C10 i.p. in DMSO (C57BL/6J mice; LPS-induced toxic shock, oral excipient-solubilized C10 stored diluted at 4° C. for 8 weeks, 1 mg/kg): as effective
Survival % of Control (C57BL/6J mice; 1 mg/kg, Ip diluted & stored in DMSO 1 wk): 0%
Survival % of Control (C57BL/6J mice; 1 mg/kg, Ip freshly diluted in DMSO): 100%
Survival % of Control (C57BL/6J mice; 1 mg/kg, Oral diluted & stored in excipient 6 wks): 100%
Survival % of Control (C57BL/6J mice; 1 mg/kg, Oral stored in excipient 1 week): 100%
microcirculatory damage and inflammatory cellular infiltration in lung (ICAM-1 and VCAM-1; H&E, 18 hours): ameliorated
ICAM-1 and VCAM-1 over-expression on endothelial cells (lung, liver) (ICAM-1 and VCAM-1; immunohistochemistry): suppressed
effect on Poly (I:C)- or LPS-increased p65/p50 complex formation (NF-κB p65/p50 complex): did not have any significant effect
